Assay results: PMC9039177 (Frontiers in Chemistry, 2022)
In brackets after ≈: the same amount, converted by molar mass. Several values for one entry are separate records, joined by “and”; a condition that tells them apart may be missing. Equal entries are not always repeated. Entries after “also recorded” stand apart in the source; their conditions may differ. Structures can show the parent of a compound that is named as a salt. Where two headings read alike, the source gives them in different places.

Tests used:
SARS-CoV-2 PLpro [1] = molecular target: T1, SARS-CoV-2 PLpro (Severe acute respiratory syndrome coronavirus 2, UniProt P0DTD1); experiment: biochemical
[2] = system: human DUBs (panel of 41 enzymes); type: biochemical
in vitro [3] = conditions: mouse, microsomes, pH 7.4
SARS-CoV PLpro [4] = molecular target: T2, SARS-CoV PLpro (Severe acute respiratory syndrome coronavirus, UniProt P0C6X7); experiment: biochemical
physchem = conditions: kinetic from dmso stock
SARS-CoV-2 PLpro [5] = molecular target: T1, SARS-CoV-2 PLpro; experiment: biochemical; type: binding
in vitro [6] = conditions: human, microsomes, pH 7.4
MERS-CoV PLpro [7] = molecular target: T3, MERS-CoV PLpro (Middle East respiratory syndrome-related coronavirus, UniProt K9N7C7); experiment: biochemical
in vitro [8] = conditions: human, Caco-2, pH 7.4
SARS-CoV PLpro [9] = molecular target: T2, SARS-CoV PLpro; experiment: biochemical; type: binding
MERS-CoV PLpro [10] = molecular target: T3, MERS-CoV PLpro; experiment: biochemical; type: binding
SARS-CoV-2 = type: cell-based

T3 sequence (K9N7C7 1482-1803 limits assumed): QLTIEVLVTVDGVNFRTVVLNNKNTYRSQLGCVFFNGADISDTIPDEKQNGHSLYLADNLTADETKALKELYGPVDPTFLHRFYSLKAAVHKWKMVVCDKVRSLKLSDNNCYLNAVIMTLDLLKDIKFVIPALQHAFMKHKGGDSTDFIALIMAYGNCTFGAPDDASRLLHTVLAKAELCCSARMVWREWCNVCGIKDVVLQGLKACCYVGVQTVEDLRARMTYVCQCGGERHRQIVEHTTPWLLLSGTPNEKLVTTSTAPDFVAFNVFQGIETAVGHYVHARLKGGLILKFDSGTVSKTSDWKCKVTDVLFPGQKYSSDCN

Question: Which “loss of potency relative to parent 5c” value (SARS-CoV-2 PLpro [1]) does the source give for `COc1cc(C(=O)NCC2CCN([C@H](C)c3cccc4ccccc34)CC2)ccn1` [Compound 10, (R)-2-methoxy-N-((1-(1-(naphthalen-1-yl)ethyl)piperidin-4-yl)methyl)isonicotinamide] here?
Answer: 4 fold

Question: And the IC50 (SARS-CoV-2 PLpro [1]; calculated IC50)?
Answer: 3400 nM

Question: Which IC50 (SARS-CoV-2 PLpro [1]; calculated IC50) does the source give for `C[C@H](c1cccc2ccccc12)N1CCC(C(=O)NCc2ccn(C)c(=O)c2)CC1` [Compound 13, (R)-N-[(1-methyl-2-oxo-1,2-dihydropyridin-4-yl)methyl]-1-[1-(naphthalen-1-yl)ethyl]piperidine-4-carboxamide] here?
Answer: 690 nM

Question: With `Cc1ncc(CNC(=O)C2CCN([C@H](C)c3cccc4ccccc34)CC2)s1` [Compound 14, (R)-N-[(2-methylthiazol-5-yl)methyl]-1-(1-(naphthalen-1-yl)ethyl)piperidine-4-carboxamide] as the compound, how does the IC50 (SARS-CoV-2 PLpro [1]; calculated IC50) read?
Answer: 710 nM

Question: Which IC50 (SARS-CoV-2 PLpro [1]; calculated IC50) does the source give for `COc1cc(CNC(=O)C2CCN(C(C)c3cc(Cl)ccc3OC)CC2)ccn1` (centres unmarked) [Compound 4, 1-(1-(5-chloro-2-methoxyphenyl)ethyl)-N-((2-methoxypyridin-4-yl)methyl)piperidine-4-carboxamide] here?
Answer: 4600 nM

Question: What does the source list for `COc1cc(CNC(=O)C2CCN([C@H](C)c3cccc4ccccc34)CC2)ccn1` [Compound 5c]?
Answer: efflux in Caco-2 (Caco-2 cell monolayers): no evidence of efflux; inhibition of human DUBs [2]: did not inhibit any of the human DUBs tested; also recorded: does not notably inhibit any of the tested human DUBs; half-life (in vitro [3]): 20 min; microsomal CLint (in vitro [3]): 86 µL/min/mg; IC50 (SARS-CoV PLpro [4]): 500 nM; solubility kinetic (physchem; pH 2, aqueous buffer): > 100 µg/mL; solubility kinetic (physchem; pH 6.5, aqueous buffer): 50 to 100 µg/mL (≈ 124 to 248 µM); Kd (SARS-CoV-2 PLpro [5]; KD Exp1, SARS-CoV-2 PLpro WT): 4110 nM; Kd (SARS-CoV-2 PLpro [5]; KD Exp2, SARS-CoV-2 PLpro WT): 2450 nM; Kd (SARS-CoV-2 PLpro [5]; KD Exp3, SARS-CoV-2 PLpro WT): 2600 nM; Kd (SARS-CoV-2 PLpro [5]; KD, SARS-CoV-2): 3050 ± 920 nM; half-life (in vitro [6]): 16 min; microsomal CLint (in vitro [6]): 110 µL/min/mg; IC50 (MERS-CoV PLpro [7]): > 98000 nM; Papp A→B (in vitro [8]): 53 ×10⁻⁶ cm/s; Papp B→A (in vitro [8]): 55 ×10⁻⁶ cm/s; Kd (SARS-CoV PLpro [9]; KD Exp1, SARS-CoV): 833 nM; Kd (SARS-CoV PLpro [9]; KD Exp2, SARS-CoV): 880 nM; Kd (SARS-CoV PLpro [9]; KD Exp3, SARS-CoV): 853 nM; Kd (SARS-CoV PLpro [9]; KD, SARS-CoV): 855 nM and 860 nM; Mouse plasma protein binding: 86.3 % bound; Kd (MERS-CoV PLpro [10]): > 20000 nM; Kd (MERS-CoV PLpro [10]; read-out: KD Exp1, MERS-CoV): > 20000 nM; Kd (MERS-CoV PLpro [10]; read-out: KD Exp3, MERS-CoV): > 20000 nM; IC50 (SARS-CoV-2 PLpro [1]; IC50, SARS-CoV-2): 720 nM; IC50 (SARS-CoV-2 PLpro [1]; calculated IC50): 860 nM; reduction of viral titer (SARS-CoV-2): 1 log

Question: For `C[C@H](c1cccc2ccccc12)N1CCC(C(=O)NCc2cccnc2)CC1` [Compound 15, (R)-1-(1-(naphthalen-1-yl)ethyl)-N-(pyridin-3-ylmethyl)piperidine-4-carboxamide], which IC50 (SARS-CoV-2 PLpro [1]; calculated IC50) is on record?
Answer: 820 nM

Question: With `C[C@H](c1cccc2ccccc12)N1CCC(C(=O)NCc2ccc(S(N)(=O)=O)cc2)CC1` [Compound 16, (R)-1-(1-(naphthalen-1-yl)ethyl)-N-(4-sulfamoylbenzyl)piperidine-4-carboxamide formate] as the compound, how does the IC50 (SARS-CoV-2 PLpro [1]; calculated IC50) read?
Answer: 590 nM

Question: What does the source list for `COc1cc(CNCC2CCN([C@H](C)c3cccc4ccccc34)CC2)ccn1.O=CO` [Compound 11, (R)-1-(2-methoxypyridin-4-yl)-N-((1-(1-(naphthalen-1-yl)ethyl)piperidin-4-yl)methyl)methanamine formate]?
Answer: loss of potency relative to parent 5c (SARS-CoV-2 PLpro [1]): 7 fold; IC50 (SARS-CoV-2 PLpro [1]; calculated IC50): 5700 nM

Question: Which “potency against SARS-CoV-2 PLpro in words” value (SARS-CoV-2 PLpro [1]) does the source give for `COc1cc(CNC(=O)C2CCN(C(C)c3c(OC)ccc4ccccc34)CC2)ccn1.O=CO` (centres unmarked) [Compound 6, 1-[1-(2-methoxynaphthalen-1-yl)ethyl]-N-[(2-methoxypyridin-4-yl)methyl]piperidine-4-carboxamide formate] here?
Answer: not tolerated

Question: Which IC50 (SARS-CoV-2 PLpro [1]; calculated IC50) does the source give for `C[C@H](c1cccc2ccccc12)N1CCC(C(=O)NCC2CCOCC2)CC1` [Compound 17, (R)-1-(1-(naphthalen-1-yl)ethyl)-N-((tetrahydro-2H-pyran-4-yl)methyl)piperidine-4-carboxamide] here?
Answer: 1300 nM
